Common to all, as to format: cell-based
Assay [1] concerns human muscle cells and motor neurons derived from hiPSC co-cultures. As to the kind of experiment: Contraction frequency in human muscle cell / hiPSC motor neuron co-cultures. As for the experimental part: The potential of said peptide Ac-SEQ ID NO: 8-NH2 to modulate the contraction frequency was evaluated in vitro using human muscle cells and motor neurons derived from hiPSC co-cultures, by means of live-imaging video of localized contractile muscle fibers recorded with an InCell 2200 automated microscope during 60 seconds, before and after treatment (after treatment, at each of the established timepoints).
Human muscle cells were cultivated at a density of 1×10^6 cells in T75 cm^2 flasks and then transferred to 96 well plates for differentiation. Motor neurons derived from hiPSC were transferred onto the 96 well plates containing the muscle cells in a differentiation medium. Co-cultures were maintained for 10 days in order to generate neurons junctions with muscle fibers. Spontaneous contractions were observed within 5 days.
Co-cultures were then treated with control medium (basal), 1 μM α-bungarotoxin, 0.5 mg/mL of acetyl hexapeptide-8 as a benchmark reference and 0.05 or 0.1 mg/mL of peptide Ac-SEQ ID NO: 8-NH2. Movies of co-cultures were recorded during 60 seconds before treatment and, after 30 minutes of incubation, movies were recorded again during 60 seconds. The culture plate was incubated again for 1 h 30 min with compounds (2 h of total incubation), and movies of co-cultures were recorded again during 60 seconds. The culture plate was incubated again for a total of 24 h with compounds and at the end of the incubation movies were recorded again during 60 seconds. Finally, compounds were washed out and a last recording after 24 h from said washed out of the compounds was done to assess an eventual recovery of muscle contractions (recovery).
Frequencies of contraction were calculated before and after each incubation. For each culture condition, 6 wells were analyzed.

For assay [2], the system named is human skeletal muscle cells. As to the kind of experiment: Calcium mobilization assay (Fluo-4 NW) after 60 mM KCl. Particulars: 48 hours, vs untreated control. The method, then:
The potential of said peptide Ac-SEQ ID NO: 8-NH2 to reduce calcium mobilization on human skeletal muscle cells was evaluated in vitro with Fluo-4 NW Calcium Assay Kit (ThermoFisher Scientific, MA USA). Briefly, human skeletal muscle myoblasts were seeded in quintuplicates in a black 96-well plate, clear bottom, at a density of 1×10^4 cells/well and maintained at standard culture conditions (37° C., 95% humidity, 5% CO2) for 48-72h. Myoblast differentiation to myocyte was then induced with specific differentiation medium (SKM-D medium+1% a/a) and monitored for 7 more days. Differentiated cells were treated with non-cytotoxic concentrations of peptide Ac-SEQ ID NO: 8-NH2 (0.01 mg/mL, 0.05 mg/mL and 0.1 mg/mL) for additional 48 hours.
Once incubation was finished, cell culture medium was replaced by 100 μl of Dye loading solution and the plate was kept on the incubator for 30 minutes. Dye solution was then replaced by assay buffer prior to calcium measurement using FLUOstar Omega instrument (BMG Labtech, Germany). For appropriate kinetic measurement, a pre-stimulus phase of 10 seconds was set to determine the baseline signal before induction of calcium influx by addition of 60 mM KCl. Post-stimulus phase was set at 90 seconds, with readings every 0.1 seconds at 494/516 nm (excitation/emission).
The following steps were performed for data analysis: 1) Calculation of a mean kinetic curve for each condition; 2) determination of maximum fluorescent signal for each curve after stimulation with KCl; 3) calculation of the fold change increase versus baseline; 4) normalization of results obtained for each condition (each peptide concentration) versus the one obtained for the control (untreated cells).
(Calcium assays in cells follow changes in intracellular calcium, usually with a dye or a luminescent sensor.)

In the next assay the test system is LAN cells. As to the kind of experiment: Measurement of acetylcholine release in differentiated LAN cells stimulated with 50 mM KCl. Particulars: 1 hour treatment, 0.001, 0.005 and 0.01 mg/mL (Ac-SEQ ID NO: 8-NH2: 0.005 and 0.05 mg/mL). The method, then: Said peptides were tested for their ability to modulate acetylcholine release in vitro. To that end, LAN cells were seeded on 48-well culture plates and allowed to reach the appropriate confluence under controlled conditions (37° C., 5% CO2) before inducing differentiation by replacing the culture media with Neurobasal® A media, supplemented with N-2 Supplement, GlutaMAX™, choline chloride and Leukemia Inhibition factor (GIBCO, Life technologies, MA, USA). Once the cells acquired its differentiated morphology, they were treated with the peptides mentioned above at the following concentrations for 1 hour: all peptides, except Ac-SEQ ID NO: 8-NH2, at 0.001 mg/mL, 0.005 mg/mL and 0.01 mg/mL; and peptide Ac-SEQ ID NO: 8-NH2 at 0.005 mg/mL and 0.05 mg/mL. Cells were then washed with HEPES, before stimulation of acetylcholine release by depolarization with external 50 mM KCl solution. Non-stimulated cells were incubated with non-depolarizing 4 mM KCl solution. After 30 minutes of incubation with the corresponding depolarizing or non-depolarizing KCl solution, cell supernatants were collected and used to measure acetylcholine levels with Amplex Red Acetylcholine Assay Kit (ThermoFisher Scientific, MA, USA). Cell pellets were used to determine protein content by BCA Protein Test Assay (Pierce BCA Protein Assay kit, ThermoFisher Scientific, MA, USA) (for data normalization purposes).
Percentage of acetylcholine release inhibition was calculated considering 100% release for the positive control (non-treated stimulated with KCl cells).

As to “Ac-His-Ala-Leu-Arg-Phe-Trp-NH2 [Ac-SEQ ID NO: 8-NH2]”, the “muscle contraction frequency with regard to the basal non-treated cells” value came to 23% in assay [1] (0.05 mg/mL, 24 h incubation); 25% in assay [1] (0.05 mg/mL, after 30 min); 65% in assay [1] (0.05 mg/mL, recovery 24 h after washout); 10% in assay [1] (0.1 mg/mL, 24 h incubation); 18% in assay [1] (0.1 mg/mL, after 30 min); 35% in assay [1] (0.1 mg/mL, recovery 24 h after washout). Moreover, the entries for the “reduction of calcium influx” value in assay [2] (0.01 mg/mL), in assay [2] (0.05 mg/mL) and in assay [2] (0.1 mg/mL) were −6%, −20% and −30%, respectively. In addition, the “Result: modulation of acetylcholine release” value with LAN cells is recorded as “Active in the modulation of”.

Values taken from US11634458B2, “Peptides and compositions for use in cosmetics and medicine” (LIPOTRUE, S.L., priority 2018, dated 2023).
